Experimental data taken from patent publication US7795290B2 (Genentech, Inc., priority 2004, dated 2010).

Biological target: T1, AKT1 (Homo sapiens, UniProt P31749)
T1 construct: purchased Upstate 14-276
Assay: HTS ATP-utilizing enzyme assay, off-chip mobility-shift (Caliper HTS 250)
Format: biochemical
Conditions: kinase named = inhibitory activity/selectivity; test compound 10 μM; active = greater than three-sigma from mean
Text: The following procedures describe the reagent and plate preparation for a HTS of an ATP-utilizing enzyme, such as a protein kinase, run in an off-chip mobility-shift assay format. The following provides an HTS protocol for running a protein kinase HTS screen on a Caliper HTS 250 microfluidics system. The following parameters are dependent on the protein kinase used and can be determined by one skilled in the art as part of a typical assay development process. For example, the peptide substrate used can be identified from the current literature, by screening a peptide library of potential protein kinase substrates, or by other applicable means accepted in the field.
The following table provides typical screen assay parameters appropriate for a Caliper HTS 250 microfluidics system used to assay AKT1. Parameters used to assay other protein kinases can be determined by one skilled in the art.
Assays to determine the kinase inhibitory activity of chemical entities of the present disclosure were performed using a Caliper HTS 250 microfluidics device, Greiner U-bottom assay plates, a Multidrop for transfer of reagents, and Biomek FX (AMNCBM03) software. Initially, 2.4 μL of a 1 mM solution of a test compound in 100% DMSO was added to a well of the Greiner U-bottom plate. A single Greiner U-bottom plate having 24×16 wells could include multiple test compounds. […] Using the Biomek FX, 10 μL of 0.5 M EDTA was added by the span-8 to wells, indicated as 100% Control and 2.4 μL of 100% DMSO was added by the span-8 to wells, indicated as 0% Control. […] The total reaction volume in each well was 25 μL, and the concentration of the test compound was 10 μM. The assay plate was incubated for 2.5 hrs at 20° C. to 22° C. […] The inhibition of the ATP-utilizing enzyme, such as a particular protein kinase, was determined by measuring the ratio of the peptide substrate to phosphorylated product for each well of the assay plate using the Caliper HTS 250 system.
The use of three-sigma statistical limits represents a conservative method for declaring potential hits among targets. The three-sigma activity, as well as the mean population activity, can be different for each target enzyme.
Each chemical entity listed in Table 2 was tested for protein kinase inhibitory activity according to the biological assays and definitions of protein kinase inhibitory activity as described herein.

T1 sequence (P31749 whole entry): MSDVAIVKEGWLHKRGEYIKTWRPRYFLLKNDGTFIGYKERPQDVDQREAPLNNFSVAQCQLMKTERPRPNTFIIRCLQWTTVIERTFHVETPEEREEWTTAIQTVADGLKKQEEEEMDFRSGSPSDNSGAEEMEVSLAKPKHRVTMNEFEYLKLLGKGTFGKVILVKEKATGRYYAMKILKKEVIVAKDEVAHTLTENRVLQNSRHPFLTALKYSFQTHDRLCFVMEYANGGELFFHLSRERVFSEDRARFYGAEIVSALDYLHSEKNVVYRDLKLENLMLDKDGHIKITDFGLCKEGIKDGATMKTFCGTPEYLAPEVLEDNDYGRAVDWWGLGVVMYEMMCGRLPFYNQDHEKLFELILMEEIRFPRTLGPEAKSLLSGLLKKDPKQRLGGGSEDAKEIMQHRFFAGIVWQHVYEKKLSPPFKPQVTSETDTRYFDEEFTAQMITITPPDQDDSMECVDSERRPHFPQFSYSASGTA

| Structure (SMILES) | Activity |
| --- | --- |
| O=C(CCCN(C(=O)c1cccs1)c1nc(-c2cc3ccccc3o2)cs1)N1CCCCC1 [N-(4-(benzofuran-2-yl)thiazol-2-yl)-N-(4-oxo-4-(piperidin-1-yl)butyl)thiophene-2-carboxamide] | AKT1 |
| CCCCCc1ccc(-c2csc(N(CCCN3CCOCC3)C(=O)c3cccs3)n2)cc1 [N-(3-morpholinopropyl)-N-(4-(4-pentylphenyl)thiazol-2-yl)thiophene-2-carboxamide] | AKT1 |
| CN(C)C(=O)CN1CCN(CCCN(C(=O)c2cccs2)c2nc(-c3cc4ccccc4o3)cs2)CC1 [N-(4-(benzofuran-2-yl)thiazol-2-yl)-N-(3-(4-(2-(dimethylamino)-2-oxoethyl)piperazin-1-yl)propyl)thiophene-2-carboxamide] | AKT1 |
| O=C1CCCN1CCCN(C(=O)c1cccs1)c1nc(-c2cc(-c3ccccc3)no2)cs1 [N-(3-(2-oxopyrrolidin-1-yl)propyl)-N-(4-(3-phenylisoxazol-5-yl)thiazol-2-yl)thiophene-2-carboxamide] | AKT1 |
| COc1ccc(-c2csc(N(CCCN3CCOCC3)C(=O)c3cccc(F)c3)n2)cc1 [3-fluoro-N-(4-(4-methoxyphenyl)thiazol-2-yl)-N-(3-morpholinopropyl)benzamide] | AKT1 |
| O=C(C1CCCO1)N1CCN(CCCN(C(=O)c2cccs2)c2nc(-c3cc4ccccc4o3)cs2)CC1 (stereo not drawn) [N-(4-(benzofuran-2-yl)thiazol-2-yl)-N-(3-(4-(tetrahydrofuran-2-carbonyl)piperazin-1-yl)propyl)thiophene-2-carboxamide] | AKT1 |
| CC(=O)N1CCC(C(=O)NCCCN(C(=O)c2cccs2)c2nc(-c3cc4ccccc4o3)cs2)CC1 [1-acetyl-N-(3-(N-(4-(benzofuran-2-yl)thiazol-2-yl)thiophene-2-carboxamido)propyl)piperidine-4-carboxamide] | AKT1 |
| CCN(CC)CCCN(C(=O)c1cccs1)c1nc(-c2cc(OC)ccc2OC)cs1 [N-(3-(diethylamino)propyl)-N-(4-(2,5-dimethoxyphenyl)thiazol-2-yl)thiophene-2-carboxamide] | AKT1 |
| COC(=O)C1CCCN1C(=O)CCN(C(=O)c1cccs1)c1nc(-c2cc3ccccc3o2)cs1 (stereo not drawn) [methyl 1-(3-(N-(4-(benzofuran-2-yl)thiazol-2-yl)thiophene-2-carboxamido)propanoyl)pyrrolidine-2-carboxylate] | AKT1 |
| COc1ccc(-c2csc(N(CCCN3CCOCC3)C(=O)c3occc3C)n2)cc1 [N-(4-(4-methoxyphenyl)thiazol-2-yl)-3-methyl-N-(3-morpholinopropyl)furan-2-carboxamide] | AKT1 |
| O=C(c1cccs1)N(CCCN1CCOCC1)c1nc(-c2cc3ccccc3[nH]2)cs1 [N-(4-(1H-indol-2-yl)thiazol-2-yl)-N-(3-morpholinopropyl)thiophene-2-carboxamide] | AKT1 |
| O=C(c1cccs1)N(CCCN1CCOCC1)c1nc(-c2cccc(F)c2)cs1 [N-(4-(3-fluorophenyl)thiazol-2-yl)-N-(3-morpholinopropyl)thiophene-2-carboxamide] | AKT1 |
| COc1ccc(-c2csc(N(CCCN3CCCC3)C(=O)c3cccs3)n2)cc1 [N-(4-(4-methoxyphenyl)thiazol-2-yl)-N-(3-(pyrrolidin-1-yl)propyl)thiophene-2-carboxamide] | AKT1 |
| O=C(c1cccs1)N(CCCN1CCOCC1)c1nc(-c2ccccc2[N+](=O)[O-])cs1 [N-(3-morpholinopropyl)-N-(4-(2-nitrophenyl)thiazol-2-yl)thiophene-2-carboxamide] | AKT1 |
| CN(C)S(=O)(=O)N1CCN(C(=O)CCCN(C(=O)c2cccs2)c2nc(-c3cc4ccccc4o3)cs2)CC1 [N-(4-(benzofuran-2-yl)thiazol-2-yl)-N-(4-(4-(N,N-dimethylsulfamoyl)piperazin-1-yl)-4-oxobutyl)thiophene-2-carboxamide] | AKT1 |
| NC(=O)C1CCCN(C(=O)CCCN(C(=O)c2cccs2)c2nc(-c3cc4ccccc4o3)cs2)C1 (stereo not drawn) [1-(4-(N-(4-(benzofuran-2-yl)thiazol-2-yl)thiophene-2-carboxamido)butanoyl)piperidine-3-carboxamide] | AKT1 |
| CN(C)CCCC(=O)NCCCN(C(=O)c1cccs1)c1nc(-c2cc3ccccc3o2)cs1 [N-(4-(benzofuran-2-yl)thiazol-2-yl)-N-(3-(4-(dimethylamino)butanamido)propyl)thiophene-2-carboxamide] | AKT1 |

| Structure (SMILES) | Activity |
| --- | --- |
| O=C(c1cccs1)N(CCCN1CCCCC1CN1CCCC1)c1nc(-c2cc3ccccc3o2)cs1 (stereo not drawn) [N-(4-(benzofuran-2-yl)thiazol-2-yl)-N-(3-(2-(pyrrolidin-1-ylmethyl)piperidin-1-yl)propyl)thiophene-2-carboxamide] | AKT1 |
| COC(=O)C1CCCN1C(=O)CCCN(C(=O)c1cccs1)c1nc(-c2cc3ccccc3o2)cs1 (stereo not drawn) [methyl 1-(4-(N-(4-(benzofuran-2-yl)thiazol-2-yl)thiophene-2-carboxamido)butanoyl)pyrrolidine-2-carboxylate] | AKT1 |
| CCOC(=O)CN1CCN(CCCN(C(=O)c2cccs2)c2nc(-c3cc4ccccc4o3)cs2)CC1 [ethyl 2-(4-(3-(N-(4-(benzofuran-2-yl)thiazol-2-yl)thiophene-2-carboxamido)propyl)piperazin-1-yl)acetate] | AKT1 |
| O=C(Nc1nccs1)c1csc(N(CCCN2CCOCC2)C(=O)c2cccs2)n1 [2-(N-(3-morpholinopropyl)thiophene-2-carboxamido)-N-(thiazol-2-yl)thiazole-4-carboxamide] | AKT1 |
| O=C(O)[C@H]1CCCN1CCCN(C(=O)c1cccs1)c1nc(-c2cc3ccccc3o2)cs1 [(R)-1-(3-(N-(4-(benzofuran-2-yl)thiazol-2-yl)thiophene-2-carboxamido)propyl)pyrrolidine-2-carboxylic acid] | AKT1 |
| O=C(c1cccs1)N(CCCN1CCOCC1)c1nc(-c2ccccc2C(F)(F)F)cs1 [N-(3-morpholinopropyl)-N-(4-(2-(trifluoromethyl)phenyl)thiazol-2-yl)thiophene-2-carboxamide] | AKT1 |
| NC(=O)C1CCN(C(=O)CCCN(C(=O)c2cccs2)c2nc(-c3cc4ccccc4o3)cs2)CC1 [1-(4-(N-(4-(benzofuran-2-yl)thiazol-2-yl)thiophene-2-carboxamido)butanoyl)piperidine-4-carboxamide] | AKT1 |
| O=C(CCN(C(=O)c1cccs1)c1nc(-c2cc3ccccc3o2)cs1)N(CCO)CCO [N-(4-(benzofuran-2-yl)thiazol-2-yl)-N-(3-(bis(2-hydroxyethyl)amino)-3-oxopropyl)thiophene-2-carboxamide] | AKT1 |
| COc1ccc(OC)c(-c2csc(N(CCCN3CCCCCC3)C(=O)c3ccco3)n2)c1 [N-(3-(azepan-1-yl)propyl)-N-(4-(2,5-dimethoxyphenyl)thiazol-2-yl)furan-2-carboxamide] | AKT1 |
| COc1ccc(-c2csc(N(CCCN3CCCC3)C(=O)c3ccco3)n2)cc1 [N-(4-(4-methoxyphenyl)thiazol-2-yl)-N-(3-(pyrrolidin-1-yl)propyl)furan-2-carboxamide] | AKT1 |
| CCN(CC)C(=O)C1CCCN(CCCN(C(=O)c2cccs2)c2nc(-c3cc4ccccc4o3)cs2)C1 (stereo not drawn) [1-(3-(N-(4-(benzofuran-2-yl)thiazol-2-yl)thiophene-2-carboxamido)propyl)-N,N-diethylpiperidine-3-carboxamide] | AKT1 |
| COc1ccc(OC)c(-c2csc(N(CCCN3CCCC3)C(=O)c3cccs3)n2)c1 [N-(4-(2,5-dimethoxyphenyl)thiazol-2-yl)-N-(3-(pyrrolidin-1-yl)propyl)thiophene-2-carboxamide] | AKT1 |
| NC(=O)C1CCCN(CCCN(C(=O)c2cccs2)c2nc(-c3cc4ccccc4o3)cs2)C1 (stereo not drawn) [1-(3-(N-(4-(benzofuran-2-yl)thiazol-2-yl)thiophene-2-carboxamido)propyl)piperidine-3-carboxamide] | AKT1 |
| NC(=O)c1cccc(NC(=O)c2csc(N(CCCN3CCOCC3)C(=O)c3cccs3)n2)c1 [N-(3-carbamoylphenyl)-2-(N-(3-morpholinopropyl)thiophene-2-carboxamido)thiazole-4-carboxamide] | AKT1 |
| COc1ccc2oc(-c3csc(N(CCCN4CCOCC4)C(=O)c4cccs4)n3)cc2c1 [N-(4-(5-methoxybenzofuran-2-yl)thiazol-2-yl)-N-(3-morpholinopropyl)thiophene-2-carboxamide] | AKT1 |
| O=C(O)c1ccc(-c2csc(N(CCCN3CCOCC3)C(=O)c3cccs3)n2)cc1 [4-(2-(N-(3-morpholinopropyl)thiophene-2-carboxamido)thiazol-4-yl)benzoic acid] | AKT1 |
